US20200061212A1, “SOLID ORAL COMPOSITION CONTAINING DYES” (COSMO TECHNOLOGIES LTD., priority 2016, published 2020)

Tests used:
[1] = test system: subjects undergoing screening or surveillance colonoscopy; assay: Phase III placebo-controlled trial: Adenoma or Carcinoma detection rate and false positive rate at HD white light colonoscopy; format: in vivo, human; conditions: for ADR: Difference in Proportions of Methylene Low Dose vs. Placebo: 100 mg; for ADR: Difference in Proportions of Methylene Full Dose vs. Methylene Blue Low Dose: 200 mg vs 100 mg; for False Positive Rate: subjects with excisions and without any histologically proven Adenoma or Carcinoma, %: % of subjects with excision
Text: The detection rate was defined as the proportion of patients with at least one histologically proven Adenoma or Carcinoma.
In other words, in the study the standard of care (white light endoscopy) and the chromoendoscopy by oral administration of the MB tablets were compared. In the acquisition and recording of the colonoscopies, the latest and more technologically advanced, high definition (HD) endoscopes were used. Thus, the study allowed the direct comparison of the effect of the MB tablets on the adenoma or carcinoma detection rate to the current gold standard colonoscopy, i.e. the high definition (HD) white light colonoscopy. For this reason, in the context of the present example, the terms “placebo”, “white light high definition endoscopy” (WLHD) and “white light endoscopy” can be used interchangeably, and definitively indicate the current standard of care for the endoscopic examination of the colon. Due to the unavoidable impossibility to obtain double-blinding for the clinical study, since the endoscopist performing the colonoscopy was able to see if the colon was blue colored or unstained, an additional, underpowered, masking group was introduced. […] These patients had the colon stained in blue, but were not taken into account in the calculation of the study parameters. In this way, while performing the colonoscopy, the endoscopist was not aware if a patient belonged to the group of the full dose (whose patients were part of the statistical calculation) or to the “masking” group (whose patients received a lower dose of the composition and were not part of the statistical analysis).
Subjects aged between 50 and 75 years undergoing full colonoscopy for screening or surveillance of colorectal cancer were recruited.
Diet: In preparation for the colonoscopy patients adopted a low residue diet for three days prior to the colonoscopy. On the third day of the low residue diet patients must fast for at least 3 hours before starting intake of the bowel prep and study drug.
Bowel cleansing preparation: all subjects received a full dose regimen of 4 liters PEG-based bowel cleansing preparation starting in the late afternoon (after 6 pm) before the colonoscopy day. The subjects drank at least 250 mL of solution every 15 min, so that the intake of the cleansing preparation, and study drug were completed in 4 hours.
Dose regimen: The subjects were randomized 2:2:1 into three groups.
All the patients participating to the study, regardless of whether they belonged to Group one, Group two or Group three, received a timetable detailing the volumes of bowel cleansing preparation to be consumed, and the times to be respected:
The subjects had to drink about 250 mL of bowel cleansing preparation every 15 minutes, equivalent to 1 liter of bowel cleansing preparation every hour. The timeframe between an oral administration of tablets and the following one had to be 1 hour.
Adenoma was defined as a histologically proven Vienna Grade 3 to 4.2 or a histologically proven traditional serrated adenoma (TSA), or a histologically proven sessile serrated adenoma (SSA). Histologically proven Carcinoma was defined as Vienna Grade 4.3 to 5b.
Day of colonoscopy 02: patients returned to the clinic for the colonoscopy. The colonoscopy was performed using high definition (HD) colonoscope. Narrow-Band-Imaging (NBI) and all other electronic chromoendoscopy and contrast enhancement techniques, as well as zoom endoscopy or magnification were not permitted. The endoscopist performed the full colonoscopy and recorded and removed all the detected adenoma and/or carcinoma. The endoscopist recorded the morphology and size and classified the found polyps, adenomas and carcinomas, and recorded the pit pattern according to the Paris and Kudo's classification and following the endoscopy charter.

[2] = molecular target: T1, P-gp (Homo sapiens, UniProt P08183); assay: in vitro transporter substrate study; format: in vitro ADME; conditions: in vitro studies
[3] = molecular target: T1, P-gp; assay: in vitro transporter inhibition study; format: in vitro ADME; conditions: in vitro studies
[4] = test system: CYP 2B6
[5] = test system: CYP 1A2
[6] = low dose 100 mg, Per Protocol N=225
[7] = patients with number of excisions 0-1, FAS
[8] = patients with number of excisions 0-1, PP
[9] = patients with number of excisions ≤3, FAS
[10] = patients with number of excisions ≤3, PP

T1 sequence (P08183 whole entry): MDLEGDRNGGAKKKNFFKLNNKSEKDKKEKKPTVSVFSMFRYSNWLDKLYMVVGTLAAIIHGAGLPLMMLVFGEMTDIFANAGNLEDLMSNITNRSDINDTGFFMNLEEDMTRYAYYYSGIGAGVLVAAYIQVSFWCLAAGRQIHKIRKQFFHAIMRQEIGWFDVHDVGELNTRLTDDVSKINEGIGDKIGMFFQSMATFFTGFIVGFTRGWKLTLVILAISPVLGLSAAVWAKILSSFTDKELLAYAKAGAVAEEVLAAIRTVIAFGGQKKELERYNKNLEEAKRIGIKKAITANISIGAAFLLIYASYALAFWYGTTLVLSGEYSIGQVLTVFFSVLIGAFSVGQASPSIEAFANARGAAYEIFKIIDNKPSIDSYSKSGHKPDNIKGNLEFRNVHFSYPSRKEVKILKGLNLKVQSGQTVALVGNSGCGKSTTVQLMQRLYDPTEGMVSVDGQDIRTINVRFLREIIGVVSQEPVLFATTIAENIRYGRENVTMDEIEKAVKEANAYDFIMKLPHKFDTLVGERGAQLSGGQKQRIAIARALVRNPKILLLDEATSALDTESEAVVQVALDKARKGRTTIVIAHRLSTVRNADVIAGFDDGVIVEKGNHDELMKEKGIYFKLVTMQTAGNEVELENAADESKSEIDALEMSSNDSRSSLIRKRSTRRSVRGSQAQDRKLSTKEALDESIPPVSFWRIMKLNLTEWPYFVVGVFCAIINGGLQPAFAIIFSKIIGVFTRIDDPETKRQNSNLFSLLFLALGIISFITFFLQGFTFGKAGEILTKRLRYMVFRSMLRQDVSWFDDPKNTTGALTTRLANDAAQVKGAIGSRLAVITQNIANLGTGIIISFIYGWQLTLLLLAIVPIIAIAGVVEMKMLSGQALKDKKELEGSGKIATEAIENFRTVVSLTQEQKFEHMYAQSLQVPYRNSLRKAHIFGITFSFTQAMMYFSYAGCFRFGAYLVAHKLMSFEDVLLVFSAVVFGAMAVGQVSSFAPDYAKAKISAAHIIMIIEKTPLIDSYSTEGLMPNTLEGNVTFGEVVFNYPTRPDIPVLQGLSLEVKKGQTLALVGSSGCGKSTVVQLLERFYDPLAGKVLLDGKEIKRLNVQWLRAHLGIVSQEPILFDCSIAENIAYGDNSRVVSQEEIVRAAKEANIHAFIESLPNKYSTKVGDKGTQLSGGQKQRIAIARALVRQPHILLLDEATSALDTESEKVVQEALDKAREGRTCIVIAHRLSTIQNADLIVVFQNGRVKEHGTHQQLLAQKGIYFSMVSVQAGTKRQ

## CN(C)c1ccc2nc3ccc(=[N+](C)C)cc-3sc2c1 [Methylene blue, Methylthioninium Chloride (Methylene Blue)]
[1]; FAS
  ADR: Difference in Proportions of Methylene Low Dose vs. Placebo: 3.64
  ADR: Difference in Proportions of Methylene Full Dose vs. Methylene Blue Low Dose: 4.84
  Absolute difference in proportion of subjects between methylene blue full dose and placebo, Table 14 (non-polypoid lesions): 8.83%
  Absolute difference in proportion of subjects with diminutive adenomas between methylene blue full dose and placebo: 6.21%
  Difference in False Positive Rates of Methylene Blue Full Dose vs. Methylene Blue Low Dose: −2.88
  Difference in False Positive Rates of Methylene Blue Full Dose vs. Placebo: −6.44
  Difference in False Positive Rates of Methylene Blue Low Dose vs. Placebo: −3.56
  Percent increase in proportion of subjects for methylene blue full dose vs placebo, Table 14 (non-polypoid lesions): 25.2%
  Percent increase in proportion of subjects with diminutive adenomas for methylene blue full dose vs placebo: 20.1%
[1]; Per Protocol
  ADR: Difference in Proportions of Methylene Low Dose vs. Placebo: 5.86
  ADR: Difference in Proportions of Methylene Full Dose vs. Methylene Blue Low Dose: 4.46
  Difference in False Positive Rates of Methylene Blue Full Dose vs. Methylene Blue Low Dose: −3.03
  Difference in False Positive Rates of Methylene Blue Full Dose vs. Placebo: −7.51
  Difference in False Positive Rates of Methylene Blue Low Dose vs. Placebo: −4.49
[1]; 200 mg, FAS
  ADR: Difference in Proportions of Methylene Blue Full Dose vs. Placebo: 8.48
  Absolute difference in ADR between methylene blue full dose and placebo: 8.48%
  Percent decrease in FPR for methylene full dose vs placebo: 21.6%
  Percent increase in ADR for methylene full dose vs placebo: 17.7%
[1]; 200 mg, PP
  Percent decrease in FPR for methylene full dose vs placebo: 24.8%
[1]; 200 mg, Per Protocol
  ADR: Difference in Proportions of Methylene Blue Full Dose vs. Placebo: 10.32
  Absolute difference in ADR between methylene blue full dose and placebo: 10.32%
  Percent increase in ADR for methylene blue full dose vs placebo: 21.5%
[1]; Number of excisions 0-1, low dose 100 mg, FAS
  ADR, %: 20.83%
[1]; Number of excisions 4-6, full dose 200 mg, FAS
  ADR, %: (85.06) %
[1]; Number of excisions 4-6, low dose 100 mg, FAS
  ADR, %: 87.80%
[1]; Number of excisions >6, full dose 200 mg, FAS
  ADR, %: (97.22) %
[1]; Number of excisions >6, low dose 100 mg, FAS
  ADR, %: 100.00%
[1]; Number of excisions ≤3, low dose 100 mg, FAS
  ADR, %: 38.12%
[1]; excluding carcinoma, FAS
  Absolute difference in proportion of subjects with a histologically proven adenoma between methylene blue full dose and placebo: 9.33%
  Percent increase in proportion of subjects with a histologically proven adenoma for methylene blue full dose vs placebo: 20.3%
[1]; full dose 200 mg, FAS N=485
  Percentage of subjects with a histologically proven adenoma (excluding carcinoma): 55.26%
  Percentage of subjects with diminutive adenomas: 37.11%
  Percentage of subjects with non-polypoid lesions: 43.92%
  Subjects with excision, %: (73.40) %
  Total number of subjects with a histologically proven adenoma (excluding carcinoma): 268
  Total number of subjects with diminutive adenomas: 180
  Total number of subjects with non-polypoid lesions: 213
[1]; full dose 200 mg, PP
  ADR in patients with number of excisions 0-1: 25.32%
  ADR in patients with number of excisions ≤3: 68.24%
[1]; full dose 200 mg, Per Protocol N=455
  Subjects with excision, %: (75.38) %
[1]; low dose 100 mg (MB tablets of Example 6), FAS N=241
  Subjects with at least one histologically proven Adenoma or Carcinoma (ADR), %: 51.45%
[1]; low dose 100 mg, FAS N=241
  Subjects with excision, %: 69.71%
[1]; low dose 100 mg, FAS
  False Positive Rate: subjects with excisions and without any histologically proven Adenoma or Carcinoma, %: 26.19%
[1]; [6]
  Subjects with at least one histologically proven Adenoma or Carcinoma (ADR), %: 53.78%
  Subjects with excision, %: 72.44%
[1]; low dose 100 mg, Per Protocol
  False Positive Rate: subjects with excisions and without any histologically proven Adenoma or Carcinoma, %: 25.77%
[1]; [7]
  Absolute difference in ADR between methylene blue full dose and placebo: 7.24%
  Percent increase in ADR for methylene full dose vs placebo: 38.2%
[1]; [8]
  Absolute difference in ADR between methylene blue full dose and placebo: 9.15%
  Percent increase in ADR for methylene full dose vs placebo: 45.4%
[1]; [9]
  Absolute difference in ADR between methylene blue full dose and placebo: 9.40%
  Percent increase in ADR for methylene full dose vs placebo: 26.2%
[1]; [10]
  Absolute difference in ADR between methylene blue full dose and placebo: 11.47%
  Percent increase in ADR for methylene full dose vs placebo: 40.8%
[2]
  substrate of the membrane transport protein P-gp: possible substrate
[3]
  inhibition of P-gp: weak inhibitor
[4]
  induction of CYP isozyme 2B6: induces
[5]
  induction of CYP isozyme 1A2: induces
